We go through two molecules from patent US20250345299A1, “COMBINATION AND COMPOSITION COMPRISING NICOTINIC ACID OR DERIVATIVE THEREOF AND FATTY ACID OR DERIVATIVE THEREOF” (T OMEGA AS, priority 2022, published 2025).

Assay type in all cases: in vivo, male Wistar rats, Rattus norvegicus
Assay [1] is described as follows: Analysis of plasma compounds in rats fed high-fat diet supplemented with TTA, NR, NAR or combinations. Particulars: high-fat diet + supplement, 12 weeks. Further details: Quinolinic acid / Nicotinamide / N1-Methylnicotinamide / Pyridoxal 5′-phosphate / Pyridoxal / Thiamine monophosphate: unit not given here. Here is the method: This example illustrates an animal study using male Wistar rats which were fed NR, NAR, TTA and combinations thereof.
(§1) The animal study was conducted according to the Guidelines for the Care and Use of Experimental Animals, and in accordance with the Norwegian legislation and regulations governing experiments using live animals. All efforts were made to optimize the animal environment and minimize suffering. Eight weeks-old old male Wistar rats, Rattus norvegicus, weighing 400-450 g, were purchased from Taconic (Ejby, Denmark). Upon arrival the rats were randomized using Research Randomizer, labeled and placed in open cages, two in each cage, where they were allowed to acclimatize to their surroundings for one week. During the acclimatization and experiment period, the rats had unrestricted access to tap water, but restricted access to chow to obtain a constant dose through the experiment.
(§2) The rats were kept in a 12 hours light/dark cycle at a constant temperature (22±2° C.) and a relative humidity of 55% (±5%). Upon start of the experiment, the rats were block randomized to their respective interventions. All rats were divided into seven groups. The first group of animals (control group) was fed a high-fat diet (HF) with 25% by weight fat, consisting of 23% by weight lard and 2% by weight soybean oil, referred to as “HF”. The second group was fed a high-fat diet (HF) supplemented with tetradecylthioacetic acid (TTA) (250 mg/day/kg body weight), referred to as “HF+TTA”. The third group was fed a high-fat diet (HF) supplemented with nicotineamide riboside (NR) (100 mg/day/kg body weight), referred to as “HF+NR”. The fourth group was fed a high-fat diet (HF) supplemented with nicotinic acid riboside (NAR) (40 mg/day/kg body weight), referred to as “HF+NAR”. The fifth group was fed a high-fat diet (HF) supplemented with both tetradecylthioacetic acid (TTA) (250 mg/day/kg body weight) and nicotineamide riboside (NR) (100 mg/day/kg body weight), referred to as “HF+TTA+NR”. The sixth group was fed a high-fed diet (HF) supplemented with both tetradecylthioacetic acid (TTA) (250 mg/day/kg body weight) and nicotinic acid riboside (NAR) (40 mg/day/kg body weight), referred to as “HF+TTA+NAR”. The seventh group was fed a low-fed diet, referred to as “LF”.
(§3) All animals were weighed daily and feed intake was determined weekly. The animal experiment was run for 12 weeks. At sacrifice, rats were anaesthetized by inhalation of 2-5% isoflurane (Schering-Plough, Kent, UK), the abdomen opened along the midline, and exsanguination was performed using cardiac puncture. EDTA-blood was collected and immediately chilled on ice. The samples were centrifuged and plasma was stored at −80° C. prior to analysis. Different tissues were collected, weighed and were immediately snap-frozen in liquid nitrogen and stored at −80° C. until further analysis.

Assay [2] can be described thus: Plasma lipids and total fatty acids in rats fed supplemented high-fat diet. The note with it: high-fat diet + supplement, 12 weeks. How it is done: as §1, with “Eight weeks-old old male Wistar rats, Rattus norvegicus, weighing 400-450 g, were purchased from Taconic (Ejby, Denmark).” left out
as §2, §3

The nature of assay [3]: Body and adipose tissue weights in rats fed supplemented high-fat diet. How it is done:
as §1, with “Eight weeks-old old male Wistar rats, Rattus norvegicus, weighing 400-450 g, were purchased from Taconic (Ejby, Denmark).” left out
as §2, §3

A short description of assay [4]: Liver lipids in rats fed supplemented high-fat diet. Particulars: high-fat diet + supplement, 12 weeks. Here is the method:
as §1, with “Eight weeks-old old male Wistar rats, Rattus norvegicus, weighing 400-450 g, were purchased from Taconic (Ejby, Denmark).” left out
The rats were kept in a 12 hours light/dark cycle at a constant temperature (22±2° C.) and a relative humidity of 55% (±5%). Upon start of the experiment, the rats were block randomized to their respective interventions. All rats were divided into seven groups. The first group of animals (control group) was fed a high-fat diet (HF) with 25% by weight fat, consisting of 23% by weight lard and 2% by weight soybean oil, referred to as “HF”. The second group was fed a high-fat diet (HF) supplemented with tetradecylthioacetic acid (TTA) (250 mg/day/kg body weight), referred to as “HF+TTA”. […]
All animals were weighed daily and feed intake was determined weekly. […]

The mark [5] stands for this setting: high-fat diet + supplement, 12 weeks.

Regarding `O=C([O-])c1ccc[n+]([C@@H]2O[C@H](CO)[C@@H](O)[C@H]2O)c1` [HF + NAR, nicotinic acid riboside], in assay [1], the 2-Aminoadipic acid amounted to 1.34 µM, the 3-Hydroxyanthranilic acid stood at 7.8 µM, the Folic acid turned out to be 0.70 µM and the Methylmalonic acid turned out to be 2.35 µM. In assay [1], the N1-Methylnicotinamide is recorded as 2414, the Nicotinamide turned out to be 4308, the Nicotinic acid came to 11.95 µM and the Pyridoxal stood at 384.1. In addition, in assay [1], the “Pyridoxal 5′-phosphate” value is on record as 598.3, the Serine worked out at 325 µM, the Thiamine monophosphate came out at 350.0 and the Trigonelline stood at 0.084 µM.
Regarding nicotineamide riboside [HF + NR], in assay [2], the HDL/LDL ratio turned out to be 2.117, the “Plasma lipids: Cholesterol” value was 2.000 mmol/L, the “Plasma lipids: High density lipoprotein” value turned out to be 0.938 mmol/L and the “Plasma lipids: Low density lipoprotein” value was 0.450 mmol/L. In assay [2], the “Plasma lipids: Triglycerides” value was 2.194 mmol/L and the “Total fatty acids, plasma” value amounted to 3049 µg/mL. Also, in assay [3] (setting [5]), the “Brown adipose tissue weight” value was 0.308 g and the “White adipose tissue weight” value is on record as 34.52 g. The Body weight end in assay [3] (high-fat diet + supplement, end of 12 weeks) was 555.60 g. For the same molecule, the Body weight start in assay [3] (start of experiment (baseline)) was 409.60 g. Also, in assay [4], the “Liver lipids: Cholesterol” value is 39.84 µmol/g and the “Liver lipids: Triglycerides” value was found to be 75.22 µmol/g. In assay [1], the 2-Aminoadipic acid came to 1.33 µM, the 3-Hydroxyanthranilic acid worked out at 5.4 µM, the 3-Hydroxybutyrate was 287 µM and the Acetoacetate was 72.9 µM. In addition, in assay [1], the Glycine stood at 221 µM, the Methylmalonic acid was 3.37 µM, the N1-Methylnicotinamide is 3616 and the Nicotinamide is on record as 5870. Further, in assay [1], the Nicotinic acid was 12.38 µM, the Pyridoxal was determined as 369.8, the “Pyridoxal 5′-phosphate” value stood at 729.0 and the Quinolinic acid is 533.
